Measured values reported in US10682367B2, “Antitumor arylnaphthalene ligand glycosides” (OHIO STATE INNOVATION FOUNDATION, priority 2016, dated 2020).
Converted amounts (≈) assume the structure as drawn. Like-named read-outs stand apart in the source and are kept apart here. One block for each molecule: values may come before it.

Experiments:
HT-29 cells = experiment: Cytotoxicity / antiproliferative activity against HT-29 cells; type: cell-based; settings: for IC50: HT-29 cells, antiproliferative activity
Text: The cytotoxicity of the compounds in FIG. 1 was screened against HT-29 cells by a previously reported procedure (Ren Y et al. J. Nat. Prod 2011, 74, 1117-1125). A summary of the results is described in Table 1.

[1] = Solubility, plate reader-based absorbance assay; type: physicochemical
Text: A series of compounds were synthesized to improve their water solubility. In particular, phyllanthusmin derivatives including an arabinose derivative with a free C2 hydroxy group, have been explored to produce phosphate, succinate, and amino acid conjugates. In addition PHY-25 and PHY-30 have also been synthesized to contain similar alcohol functionality that can ultimately be utilized to improve water solubility. PHY-28 and PHY-29 containing a glucosamine moiety were also synthesized for improved water solubility. The water solubility of these and other PHY derivatives was assessed (Table 2) to establish a baseline of solubility in a series of 4 solutions. This was accomplished using a plate reader-based absorbance assay.
(§1) The solubility, maximum tolerated dose, and pharmacokinetics of the phyllanthusmins, facilitating the in vivo studies with PHY-34, were also determined. The solubility of the compounds were assessed in DMSO, PEG300, HPβCD, and PBS. The stability of PHY-34 was assessed in a formulation comprising PEG300 and saline at a 1:1 volume ratio. The solution was prepared at a concentration of 7 mg/ml. A plate reader-based absorbance assay or LC-MS/MS was used. Table 4 summarizes the solubility measurements. FIG. 5 and Table 5 summarize the stability measurements. FIGS. 6A and 6B show the concentration-time profile of PHY-34 in mouse plasma via different administration routes

[2] = system: OVCAR3 ovarian cancer cell line; experiment: IC50 in ovarian cancer cell line OVCAR3; type: cell-based; settings: OVCAR3
Description: (§2) The compounds shown in FIG. 2 were tested against two different ovarian cancer cell lines (xenograft mouse model OVCAR3 and OVCAR8 ovarian cancer cell lines). […] A summary of the test data is shown in FIGS. 3A, 3B, and 4 and Table 3. A comparison of the IC50 values of the compounds in FIG. 2 in two of the ovarian cancer cell lines (OVCAR3 and OVCAR8) reveal subtle differences in activity.

[3] = system: OVCAR8 ovarian cancer cell line; experiment: IC50 in ovarian cancer cell line OVCAR8; type: cell-based; settings: OVCAR8
Description: as §2

[4] = Structure-activity remarks on potency of PHY analogues (test not named); settings: relative to PHY-34 type acetal
[5] = Stability of PHY-34 in PEG300/saline formulation; type: physicochemical; settings: for Stability of PHY-34 / Stability of PHY-34, second value column: PEG300:saline 1:1, 7 mg/ml
Description: as §1

mice = experiment: Toxicity and maximum tolerated dose in mice by IV, IP or PO route; type: in vivo; settings: for MTD (maximum tolerated dose) / Toxicity (survival): mice
Description: To determine toxicity, PHY-34 was administered to mice by the bolus intravenous (IV), bolus intraperitoneal (IP), or oral (PO) route to the assigned animals.

[6] = mouse, in vivo
Description: as §1

Hollow fiber assay = experiment: Hollow fiber assay; parameters: species or system mice; settings: mouse
Description: Hollow fiber assay, IVIS imaging, tubulin inhibition, autophagy, and tumor burden were determined in mice exposed to various arylnaphthalene ligans.

[7] = system: numerous other cell lines; experiment: In vitro activity in numerous other cell lines; type: cell-based

Molecule: COc1cc2c(OC3OCC4OC(C)(C)OC4C3OC)c3c(c(-c4ccc5c(c4)OCO5)c2cc1OC)C(=O)OC3 (stereo not shown) [PHY-31]
IC50 (HT-29 cells): 5.29 nM

Molecule: COc1cc2c(O[C@@H]3OC[C@H](OC(C)=O)[C@H](OC(C)=O)[C@H]3OC(C)=O)c3c(c(-c4ccc5c(c4)OCO5)c2cc1OC)C(=O)OC3 [PHY-7, 7-O-((2,3,4-tri-O-acetyl)-α-L-arabinopyranosyl) diphyllin]
Solubility in 10% Cremaphor EL/PBS [1]: 7400 µg/mL (≈ 11.6 mM) | Solubility in DMSO [1]: 112000 µg/mL (≈ 175 mM) | Solubility in PBS [1]: 140 µg/mL (≈ 0.219 mM) | Solubility in PEG300 [1]: 5700 µg/mL (≈ 8.93 mM)

Molecule: C=CCOc1c2c(c(-c3ccc4c(c3)OCO4)c3cc(OC)c(OC)cc13)C(=O)OC2 [PHY-18]
IC50 (HT-29 cells): 570 nM

IC50 [2]: 119 nM | IC50 [3]: 2.44 nM
Molecule: COc1cc2c(OC3OC(CO)C4OC5(CCCC5)OC4C3O)c3c(c(-c4ccc5c(c4)OCO5)c2cc1OC)C(=O)OC3 (stereo not shown) [PHY-43]
effect of acetal variation on potency (in words) [4]: well tolerated

IC50 [2]: 1500 nM | IC50 [3]: 10.4 nM
Molecule: COc1cc2c(OC3OC(CO)C(OC)C(OC)C3OC)c3c(c(-c4ccc5c(c4)OCO5)c2cc1OC)C(=O)OC3 (stereo not shown) [PHY-25]
IC50 (HT-29 cells): 1.7 nM

Solubility in 10% Cremaphor EL/PBS [1]: 10000 µg/mL | Solubility in DMSO [1]: 86000 µg/mL | Solubility in PBS [1]: 160 µg/mL | Solubility in PEG300 [1]: 24000 µg/mL
Molecule: phyllanthusmins C [PHY-20]
IC50 (HT-29 cells): 1210 nM

Solubility in 10% Cremaphor EL/PBS [1]: 10000 µg/mL | Solubility in DMSO [1]: 83000 µg/mL | Solubility in PBS [1]: 180 µg/mL | Solubility in PEG300 [1]: 15000 µg/mL
Molecule: phyllanthusmins C [PHY-11]

Molecule: acutissimalignan A [ACUTA, reference compound]
IC50 [2]: 3130 nM | IC50 [3]: 35.8 nM

Molecule: COc1cc2c(OC3OC(CO)C4OC(C)(C)OC4C3O)c3c(c(-c4ccc5c(c4)OCO5)c2cc1OC)C(=O)OC3 (stereo not shown) [PHY-34]
activity against HT-29 cells (in words) (HT-29 cells; in vitro): sub-nanomolar | IC50 [2]: 3.94 nM | potency in ovarian cancer cell lines (in words) [2]: highest potency | IC50 [3]: 4.06 nM | potency in ovarian cancer cell lines (in words) [3]: highest potency | Solubility in 30% HPβCD [1]: 1700 µg/mL (≈ 2.92 mM) | Solubility in DMSO [1]: 114400 µg/mL (≈ 196 mM) | Solubility in PBS [1]: 30 µg/mL (≈ 0.0515 mM) | Solubility in PEG300 [1]: 27600 µg/mL (≈ 47.4 mM) | Stability of PHY-34 ([5]; 4° C., 1 week): 86 | Stability of PHY-34 ([5]; 4° C., 1 day): 95 | Stability of PHY-34, second value column ([5]; 4° C., 1 day): 77 | Stability of PHY-34 ([5]; RT, 0 hr): 100 | Stability of PHY-34, second value column ([5]; RT, 0 hr): 100 | Stability of PHY-34 ([5]; RT, 6 hr): 87 | Stability of PHY-34, second value column ([5]; RT, 6 hr): 82 | Stability of PHY-34 ([5]; −20° C., 1 week): 87 | Stability of PHY-34, second value column ([5]; −20° C., 1 week): 77 | Stability of PHY-34 ([5]; −20° C., 1 day): 90 | Stability of PHY-34, second value column ([5]; −20° C., 1 day): 82 | Stability of PHY-34 ([5]; −80° C., 1 week): 86 | Stability of PHY-34, second value column ([5]; −80° C., 1 week): 81 | Stability of PHY-34 ([5]; −80° C., 1 day): 93 | Stability of PHY-34, second value column ([5]; −80° C., 1 day): 80 | stability of PHY-34 solution upon storage (in words) ([5]; storage for one week at 4° C. to −80° C.): stable (no significant degradation) | MTD (maximum tolerated dose) (mice; IP): 1.8 mpk | Toxicity (survival) (mice; IP, 0.6 mpk): all 3 alive | Toxicity (survival) (mice; IP, 1.8 mpk): all 5 alive | Toxicity (survival) (mice; IP, 3 mpk, within 0.5): all 3 died within 0.5 | Toxicity (survival) (mice; IP, 6 mpk, within 0.5 hour): all 5 died within 0.5 | MTD (maximum tolerated dose) (mice; IV): 0.6 mpk | Toxicity (survival) (mice; IV, 0.3 mpk): all 5 alive | Toxicity (survival) (mice; IV, 0.6 mpk): all 5 alive | Toxicity (survival) (mice; IV, 1 mpk, within 0.5 hour): 1 out of 5 died within | Toxicity (survival) (mice; IV, 3 mpk, within 5 minutes): all 5 died within 5 | MTD (maximum tolerated dose) (mice; PO): >30 mpk | Toxicity (survival) (mice; PO, 30 mpk): all 5 alive | toxicity on oral dosing (in words) (mice; oral dosing, up to 30 mpk): no toxicity | AUC on oral dosing (in words) [6]: reasonable AUCs | efficacy in vivo in hollow fiber assay (in words) (Hollow fiber assay): demonstrated efficacy | activity in numerous other cell lines (in words) [7]: single digit nanomolar

Molecule: phyllanthusmins D [PHY-1]
IC50 [2]: 10900 nM | IC50 [3]: 49.9 nM | Solubility in 10% Cremaphor EL/PBS ([1]; Table 2): 8400 µg/mL | Solubility in DMSO ([1]; Table 2): 97000 µg/mL | Solubility in PBS ([1]; Table 2): 120 µg/mL | Solubility in PEG300 ([1]; Table 2): 33000 µg/mL

Molecule: COc1cc2c(OCCOCc3ccccc3)c3c(c(-c4ccc5c(c4)OCO5)c2cc1OC)C(=O)OC3 [PHY-17]
IC50 (HT-29 cells): 1420 nM

Solubility in 10% Cremaphor EL/PBS [1]: 10000 µg/mL | Solubility in DMSO [1]: 75000 µg/mL | Solubility in PBS [1]: 200 µg/mL | Solubility in PEG300 [1]: 14000 µg/mL
Molecule: phyllanthusmins C [PHY-15]

Molecule: COc1cc2c(OC3OC4COC(C)OC4C(OC)C3OC)c3c(c(-c4ccc5c(c4)OCO5)c2cc1OC)C(=O)OC3 [PHY-33, 7-O-(4,6-O-ethylidene-2,3-di-O-methyl-β-D-galactopyranosyl)-diphyllin]
effect of acetal variation on potency (in words) [4]: loss of potency
